Each structure is given as a SMILES string. ≈ marks a conversion by molar mass, not a printed value.

Experiment [1] concerns S. maltophilia isolates. The experiment can be described thus: Effect of sub-MIC concentrations on growth curves. The experiment is classed as cell-based, Stenotrophomonas maltophilia. Particulars: sub-MIC concentrations (4 and 8 mg/ml), all 4 tested S. maltophilia isolates.
For experiment [2], the system named is BCC isolates. Put plainly: Effect of sub-MIC concentrations on growth curves. The experiment is classed as cell-based, Burkholderia cepacia complex. The note with it: sub-MIC concentrations (4 and 8 mg/ml), all 4 tested BCC isolates.
The subject of experiment [3] is S. maltophilia clinical isolates. The experiment can be described thus: MIC by broth microdilution. The experiment is classed as cell-based. Particulars: Stenotrophomonas maltophilia.
The test system of a further experiment is BCC biofilm. Put plainly: Inhibition of biofilm formation, MBEC High-Throughput Assay, viable cell count. Type of experiment: cell-based, Burkholderia cepacia complex. Particulars: NAC 4, 8 and 16 mg/ml, two BCC isolates.
Experiment [4] has as its system BCC isolates. Put plainly: Time-kill assay. The experiment is classed as cell-based, Burkholderia cepacia complex. The note with it: NAC 32 mg/ml.
The subject of a further experiment is S. maltophilia biofilm. Put plainly: Inhibition of biofilm formation, MBEC High-Throughput Assay, viable cell count. The experiment is classed as cell-based, Stenotrophomonas maltophilia. Particulars: NAC 4, 8 and 16 mg/ml, all S. maltophilia isolates.
The subject of experiment [5] is BCC (B. cepacia, B. cenocepacia, B. multivorans, B. metallica, B. seminalis, B. stabilis) clinical isolates. Put plainly: organism not typed. Type of experiment: cell-based, Burkholderia cepacia complex.
Experiment [6] relates to S. maltophilia isolates. Put plainly: Time-kill assay. The experiment is classed as cell-based, Stenotrophomonas maltophilia. Particulars: NAC 32 mg/ml.

Consider `CC(=O)N[C@@H](CS)C(=O)O` [NAC, N-acetylcysteine], for which the Effect on growth entry in the experiment on S. maltophilia isolates [1] and in the experiment with BCC isolates [2] was “slowed down the growth” in each case. Further, the MIC in experiment [3] (nine of 16 S. maltophilia clinical isolates) was 16 mg/mL (≈ 98 mM); in experiment [3] (remaining S. maltophilia isolates (of 16)), 32 mg/mL (≈ 196 mM); in experiment [5] (remaining BCC isolates (of 16)) it was 32 mg/mL (≈ 196 mM); in experiment [5] (seven of 16 BCC clinical isolates), 16 mg/mL (≈ 98 mM). The “Inhibition of biofilm formation” value in the experiment with BCC biofilm and in the experiment with S. maltophilia biofilm was “inhibit biofilm formation in a dose-dependent fashion” throughout. In addition, the “Reduction of bacterial inoculum (bactericidal)” value in the experiment with BCC isolates [4] (one BCC isolate) and with S. maltophilia isolates [6] (one S. maltophilia isolate) was “more than 3 logs” each time. In addition, the “Reduction of bacterial inoculum” value with BCC isolates [4] (remaining BCC isolates) and with S. maltophilia isolates [6] (remaining S. maltophilia isolates) was less than 1 log CFU/ml in each case.

For the origin of these results see patent US11918552B2, “N-acetylcysteine for use as antibacterial agent” (priority 2016, dated 2024).
